The target of assay [1] is T1, complement C5a receptor 1 (C5aR1) (Homo sapiens, UniProt P21730).
T1 construct: β-galactosidase fragment (PathHunter enzyme complementation); host or cells: CHO-K1 (PathHunter CHO-K1 C5aR1 β-arrestin cell line)
T1 sequence (P21730 1-350): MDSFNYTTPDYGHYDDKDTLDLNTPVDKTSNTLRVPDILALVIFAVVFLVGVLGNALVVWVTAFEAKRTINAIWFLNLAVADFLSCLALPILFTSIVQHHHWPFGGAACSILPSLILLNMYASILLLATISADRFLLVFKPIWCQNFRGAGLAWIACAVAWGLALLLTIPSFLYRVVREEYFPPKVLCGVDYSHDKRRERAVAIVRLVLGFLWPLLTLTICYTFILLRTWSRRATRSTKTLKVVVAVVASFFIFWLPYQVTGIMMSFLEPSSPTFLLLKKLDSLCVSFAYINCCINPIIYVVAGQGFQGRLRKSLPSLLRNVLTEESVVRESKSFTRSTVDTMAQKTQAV
Kind of assay: β-arrestin recruitment via C5aR1 activation in live CHO-K1 cells (PathHunter), agonist mode. The assay is classed as cell-based. A digest of the protocol: (§1)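 Live CHO-K1 cells expressing β-galactosidase fragments fused to β-arrestin and C5aR1; recruitment is read by fragment complementation. In agonist mode compounds are tested alone; in antagonist mode they compete against recombinant hC5a at EC90. IC50 reported in binned ranges.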
In general terms: Recruitment of arrestin is a read-out of receptor activation apart from second messengers.

The target of assay [2] is T1, complement C5a receptor 1 (C5aR1). Kind of assay: β-arrestin recruitment via C5aR1 activation in live CHO-K1 cells (PathHunter), antagonist mode. The format is cell-based. A digest of the protocol: as §1
The mark [3] stands for this setting: antagonist mode, recombinant hC5a (EC90) as competing natural agonist, live CHO-K1 cells, read-out: [Antagonist] B-arrestin2 recruitment: Average IC50.

Read-outs that look alike come from different tables or passages of the source.

The IC50 is the point on the concentration scale where inhibition reaches its midpoint.

As for `Cc1cnc2cc([C@H]3CC[C@H](c4c(F)cccc4F)CC3)c(=O)n(Cc3ncccc3C(F)(F)F)c2n1` [compound 222, 7-((1r,4r)-4-(2,6-Difluorophenyl)cyclohexyl)-3-methyl-5-((3-(trifluoromethyl)pyridin-2-yl)methyl)pyrido[2,3-b]pyrazin-6(5H)-one], the “[Agonist] B-arrestin2 recruitment: Average EC50 (nM)” value (“[Agonist] B-arrestin2 recruitment” below) in assay [1] (at 10 μM) is “Non-Active at 10 μM”. In addition, the IC50 in assay [2] (setting [3]) was less than 500 nM.

Consider `Cc1ccc2cc([C@H]3CC[C@H](c4c(C)cccc4F)CC3)c(=O)n(Cc3nccnc3OCC(F)F)c2n1` [compound 263, 1-{[3-(2,2-Difluoroethoxy)-2-pyrazinyl]methyl}-7-methyl-3-[(1r,4r)-4-(2-fluoro-6-tolyl)cyclohexyl]-1,8-diaza-2(1H)-naphthalenone], for which the “[Agonist] B-arrestin2 recruitment” value in assay [1] is “Non-Active”. In assay [2] (setting [3]), the IC50 is less than 500 nM.

`Cc1ccc2cc([C@H]3C[C@H](c4c(C)cccc4F)C3)c(=O)n(Cc3ncccc3C(F)(F)F)c2n1` [243A, 3-((1r,3r)-3-(2-Fluoro-6-methylphenyl)cyclobutyl)-7-methyl-1-((3-(trifluoromethyl)pyridin-2-yl)methyl)-1,8-naphthyridin-2(1H)-one]: the “[Agonist] B-arrestin2 recruitment” value in assay [1] was “Non-Active”. In assay [2] (setting [3]), the IC50 was less than 500 nM.

For the molecule `Cc1cnc2cc([C@H]3CC[C@H](c4ccccc4C(F)(F)F)CC3)c(=O)n(Cc3ncccc3C(F)(F)F)c2n1` [compound 202, 3-Methyl-7-((1r,4r)-4-(2-(trifluoromethyl)phenyl)cyclohexyl)-5-((3-(trifluoromethyl)pyridin-2-yl)methyl)pyrido[2,3-b]pyrazin-6(5H)-one], the “[Agonist] B-arrestin2 recruitment” value in assay [1] (at 10 μM) is “Non-Active at 10 μM”. Besides, the IC50 in assay [2] (setting [3]) is less than 500 nM.

With `COc1nccnc1Cn1c(=O)c(C2CCN(c3c(C)cccc3F)CC2)c(C)c2nccnc21` [compound 3, 7-(1-(2-Fluoro-6-methylphenyl)piperidin-4-yl)-5-((3-methoxypyrazin-2-yl)methyl)-8-methyl pyrido[2,3-b]pyrazin-6(5H)-one], the “[Agonist] B-arrestin2 recruitment” value in assay [1] is given as “Non-Active”. Besides, in assay [2] (setting [3]), the IC50 fell in the range of 500 to 5000 nM.

Take `Cc1cnc2cc([C@H]3CC[C@H](c4c(C)cccc4F)CC3)c(=O)n(Cc3ncccc3CC(F)F)c2n1` [compound 232, 5-((3-(2,2-Difluoroethyl)pyridin-2-yl)methyl)-7-((1r,4r)-4-(2-fluoro-6-methylphenyl)cyclohexyl)-3-methylpyrido[2,3-b]pyrazin-6(5H)-one]: in assay [1] (at 10 μM), the “[Agonist] B-arrestin2 recruitment” value was “Non-Active at 10 μM”. Further, the IC50 in assay [2] (setting [3]) is less than 500 nM.

In the case of `Cc1cnc2cc([C@H]3CC[C@H](c4c(C)nn(C)c4C)CC3)c(=O)n(Cc3ncccc3C(F)(F)F)c2n1` [compound 190, 3-Methyl-5-((3-(trifluoromethyl)pyridin-2-yl)methyl)-7-((1r,4r)-4-(1,3,5-trimethyl-1H-pyrazol-4-yl)cyclohexyl)pyrido[2,3-b]pyrazin-6(5H)-one], in assay [1] (at 10 μM), the “[Agonist] B-arrestin2 recruitment” value was “Non-Active at 10 μM”. Moreover, in assay [2] (setting [3]), the IC50 was in the range of 500 to 5000 nM.

On to `COc1cccnc1Cn1c(=O)c([C@H]2CC[C@H](c3c(C)cccc3F)CC2)cc2ncc(C)nc21` [compound 199, 7-((1r,4r)-4-(2-Fluoro-6-methylphenyl)cyclohexyl)-5-((3-methoxypyridin-2-yl)methyl)-3-methylpyrido[2,3-b]pyrazin-6(5H)-one], for which, in assay [1], the “[Agonist] B-arrestin2 recruitment” value is “Non-Active”. In addition, the IC50 in assay [2] (setting [3]) is less than 500 nM.

Consider `Cc1cccc(F)c1N1CCC(c2cc3nccnc3n(Cc3cncc(C(F)(F)F)n3)c2=O)CC1` [compound 30, 7-(1-(2-Fluoro-6-methylphenyl)piperidin-4-yl)-5-((6-(trifluoromethyl)pyrazin-2-yl)methyl)pyrido[2,3-b]pyrazin-6(5H)-one], for which, in assay [1], the “[Agonist] B-arrestin2 recruitment” value was “Non-Active”. Moreover, the IC50 in assay [2] was 5000 to 100000 nM.

Consider `Cc1ccc2cc([C@H]3CC[C@H](c4c(C)cccc4F)CC3)c(=O)n(Cc3nccnc3C)c2n1` [compound 206, 3-((1r,4r)-4-(2-fluoro-6-methylphenyl)cyclohexyl)-7-methyl-1-((3-methylpyrazin-2-yl)methyl)-1,8-naphthyridin-2(1H)-one], for which the “[Agonist] B-arrestin2 recruitment” value in assay [1] (at 10 μM) is recorded as “Non-Active at 10 μM”. Moreover, the IC50 in assay [2] (setting [3]) is 500 to 5000 nM.

Regarding `Cc1cccc(F)c1[C@H]1CC[C@H](c2cc3nc(CC(F)F)cnc3n(Cc3ncccc3C(F)(F)F)c2=O)CC1` [compound 226, 2-(2,2-Difluoroethyl)-7-((1r,4r)-4-(2-fluoro-6-methylphenyl)cyclohexyl)-5-((3-(trifluoromethyl)pyridin-2-yl)methyl)pyrido[2,3-b]pyrazin-6(5H)-one], in assay [1] (at 10 μM), the “[Agonist] B-arrestin2 recruitment” value was “Non-Active at 10 μM”. The IC50 in assay [2] (setting [3]) was less than 500 nM.

Turning to `Cc1cnc2cc([C@H]3CC[C@H](c4ncsc4C)CC3)c(=O)n(Cc3ncccc3OC(F)(F)F)c2n1` [compound 166, 3-Methyl-7-((1r,4r)-4-(5-methylthiazol-4-yl)cyclohexyl)-5-((3-(trifluoromethoxy)pyridin-2-yl)methyl)pyrido[2,3-b]pyrazin-6(5H)-one], in assay [1] (at 10 μM), the “[Agonist] B-arrestin2 recruitment” value is “Non-Active at 10 μM”. The IC50 in assay [2] (setting [3]) is less than 500 nM.

For `Cc1ncc2cc(C3CCN(c4c(C)cccc4F)CC3)c(=O)n(Cc3nccnc3C(F)(F)F)c2n1` [compound 47, 6-(1-(2-Fluoro-6-methylphenyl)piperidin-4-yl)-2-methyl-8-((3-(trifluoromethyl)pyrazin-2-yl)methyl)pyrido[2,3-d]pyrimidin-7(8H)-one], the “[Agonist] B-arrestin2 recruitment” value in assay [1] is on record as “Non-Active”. Moreover, the IC50 in assay [2] (setting [3]) lay within 500 to 5000 nM.

Take `Cc1cnc2cc(C3CCN(c4nccnc4C(F)(F)F)CC3)c(=O)n(Cc3ncccc3C(F)(F)F)c2n1` [compound 156, 3-Methyl-7-(1-(3-(trifluoromethyl)pyrazin-2-yl)piperidin-4-yl)-5-((3-(trifluoromethyl)pyridin-2-yl)methyl)pyrido[2,3-b]pyrazin-6(5H)-one]: the “[Agonist] B-arrestin2 recruitment” value in assay [1] (at 10 μM) is on record as “Non-Active at 10 μM”. Besides, the IC50 in assay [2] (setting [3]) lay within 500 to 5000 nM.

For `Cc1cccc(F)c1N1CCC(c2cc3nccnc3n([C@H]3CCCc4ccccc43)c2=O)CC1` [53b, (S)-7-(1-(2-Fluoro-6-methylphenyl)piperidin-4-yl)-5-(1,2,3,4-tetrahydronaphthalen-1-yl)pyrido[2,3-b]pyrazin-6(5H)-one], in assay [1], the “[Agonist] B-arrestin2 recruitment” value was “Non-Active”. Further, the IC50 in assay [2] (setting [3]) lay within 500 to 5000 nM.

On to `Cc1cnc2cc(C3CCN(c4nn(C)c5ccccc45)CC3)c(=O)n(Cc3ncccc3C(F)(F)F)c2n1` [compound 186, 3-Methyl-7-(1-(1-methyl-1H-indazol-3-yl)piperidin-4-yl)-5-((3-(trifluoromethyl)pyridin-2-yl)methyl)pyrido[2,3-b]pyrazin-6(5H)-one], for which the “[Agonist] B-arrestin2 recruitment” value in assay [1] (at 10 μM) is “Non-Active at 10 μM”. For the same molecule, the IC50 in assay [2] (setting [3]) was in the range of 5000 to 100000 nM.

On to `Cc1cnc2cc(C3CCN(c4c(C)ccc5c4cnn5C)CC3)c(=O)n(Cc3ncccc3C(F)(F)F)c2n1` [compound 185, 7-(1-(1,5-Dimethyl-1H-indazol-4-yl)piperidin-4-yl)-3-methyl-5-((3-(trifluoromethyl)pyridin-2-yl)methyl)pyrido[2,3-b]pyrazin-6(5H)-one], for which the “[Agonist] B-arrestin2 recruitment” value in assay [1] (at 10 μM) is on record as “Non-Active at 10 μM”. Further, the IC50 in assay [2] (setting [3]) fell in the range of 500 to 5000 nM.

Consider `Cc1cccc(F)c1N1CCC(n2c(=O)c3nccnc3n(Cc3ncccc3C(F)(F)F)c2=O)CC1` [compound 42, 3-(1-(2-Fluoro-6-methylphenyl)piperidin-4-yl)-1-((3-(trifluoromethyl)pyridin-2-yl)methyl)pteridine-2,4(1H,3H)-dione], for which, in assay [1], the “[Agonist] B-arrestin2 recruitment” value is given as “Non-Active”. Besides, in assay [2] (setting [3]), the IC50 is 500 to 5000 nM.

In the case of `Cc1cccc(F)c1N1CCC(c2cc3nccnc3n([C@@H]3CCCc4ncccc43)c2=O)CC1` [49a, (R)-7-(1-(2-Fluoro-6-methylphenyl)piperidin-4-yl)-5-(5,6,7,8-tetrahydroquinolin-5-yl)pyrido[2,3-b]pyrazin-6(5H)-one], the “[Agonist] B-arrestin2 recruitment” value in assay [1] was “Non-Active”. In addition, the IC50 in assay [2] (setting [3]) was 5000 to 100000 nM.

On to `Cc1cnc2cc([C@H]3CC[C@H](c4c(C)cccc4F)CC3)c(=O)n(Cc3ncccc3C(F)F)c2n1` [compound 176, 5-((3-(Difluoromethyl)pyridin-2-yl)methyl)-7-((1r,4r)-4-(2-fluoro-6-methylphenyl)cyclohexyl)-3-methylpyrido[2,3-b]pyrazin-6(5H)-one], for which the “[Agonist] B-arrestin2 recruitment” value in assay [1] is on record as “Non-Active”. Besides, the IC50 in assay [2] (setting [3]) was less than 500 nM.

On to `Cc1cnc2cc([C@H]3CC[C@H](c4c(C)cccc4F)CC3)c(=O)n(Cc3ncccc3OC(F)(F)F)c2n1` [compound 152, 7-((1r,4r)-4-(2-Fluoro-6-methylphenyl)cyclohexyl)-3-methyl-5-((3-(trifluoromethoxy)pyridin-2-yl)methyl)pyrido[2,3-b]pyrazin-6(5H)-one], for which the “[Agonist] B-arrestin2 recruitment” value in assay [1] was “Non-Active”. In addition, the IC50 in assay [2] (setting [3]) was less than 500 nM.
